Here are results for 26 compounds from patent US20110166109A1, “Synergistic Active Compound Combinations Comprising Phenyltriazoles” (Bayer CropScience AG, priority 2009, published 2011).

Read-outs that look alike come from different tables or passages of the source.

Format in all cases: in vivo
One test concerns Tetranychus urticae. Briefly: Tetranychus test (OP-resistant/spray treatment), bean leaf discs. The protocol: (§1) To produce a suitable preparation of active compound, 1 part by weight of active compound is mixed with the stated amounts of solvent and emulsifier, and the concentrate is diluted with emulsifier-containing water to the desired concentration.
Discs of bean leaves (Phaseolus vulgaris) which are infested by all stages of the greenhouse red spidermite (Tetranychus urticae) are sprayed with an active compound preparation of the desired concentration.
After the desired period of time, the effect in % is determined. 100% means that all spider mites have been killed; 0% means that none of the spider mites have been killed.

For another test, the system named is Phaedon cochleariae. Briefly: Phaedon cochleariae larvae test (treated cabbage leaves). The settings on record: applied individually; for pest or weed control at 500 g/ha / pest or weed control at 100 g/ha / pest or weed control at 200 g/ha: Phaedon cochleariae, 144 h, after 6 d, read-out: Kill in % after 6d.
Another test deals with Spodoptera frugiperda. Briefly: Spodoptera frugiperda larvae test (sprayed cabbage leaves). The settings on record: applied individually. The protocol:
as §1
Cabbage leaves (Brassica okracea) are treated by being sprayed with the preparation of active compound of the desired concentration and are populated with larvae of the armyworm (Spodoptera frugiperda) while the leaves are still moist.
After the desired period of time, the kill in % is determined. 100% means that all caterpillars have been killed; 0% means that none of the caterpillars have been killed. The kill rates determined are entered into Colby's formula.

The next test relates to Myzus persicae. As to the kind of experiment: Myzus persicae test (spray treatment of infested cabbage leaves). Particulars: applied individually. How it is done: as §1
Cabbage leaves (Brassica oleracea) which are heavily infested by the green peach aphid (Myzus persicae) are treated by spraying with the active compound preparation of the desired concentration.
After the desired period of time, the kill in % is determined. 100% means that all of the aphids have been destroyed; 0% means that none of the aphids have been destroyed. The kill rates determined are entered into Colby's formula.

The mark [1] stands for this setting: Tetranychus urticae, foliar, 144 h, read-out: Kill in % after 6d.
[2] abbreviates: Tetranychus urticae, foliar, 144 h, 500 g/ha, after 6 d, applied individually, read-out: Kill in % after 6d.

For `CSC1=N[C@@](C)(c2ccccc2)C(=O)N1Nc1ccccc1` [fenamidone], the pest or weed control at 500 g/ha in the test on Tetranychus urticae (setting [1]) and in the test with Phaedon cochleariae (500 g/ha) was 0% each time. In addition, the “Kill in % after 6d” value in the test on Spodoptera frugiperda (500 g/ha) is 0%.

Consider `Cc1nn(C)c(F)c1C(=O)Nc1ccccc1C(C)CC(C)C` (centres unmarked) [(6-18), N-[2-(1,3-dimethylbutyl)phenyl]-5-fluoro-1,3-dimethyl-1H-pyrazole-4-carboxamide], for which the “Kill in % after 1d” value in the test with Tetranychus urticae (500 g/ha, applied individually) was determined as 0%. For the same compound, the pest or weed control at 500 g/ha in the test with Tetranychus urticae (setting [2]) and with Phaedon cochleariae (500 g/ha) was 0% throughout.

With `Cc1ccc(N(SC(F)(Cl)Cl)S(=O)(=O)N(C)C)cc1` [tolyfluanid, tolylfluanid], in the test with Phaedon cochleariae (500 g/ha), the pest or weed control at 500 g/ha came to 0%.

With `O=C(NCCc1ncc(C(F)(F)F)cc1Cl)c1ccccc1C(F)(F)F` [fluopyram, N-[2-[3-chloro-5-(trifluoromethyl)-2-pyridinyl]ethyl]-2-(trifluoromethyl)benzamide], the pest or weed control at 500 g/ha with Tetranychus urticae (setting [1]) and in the test with Phaedon cochleariae (500 g/ha) was 0% throughout. In addition, in the test on Spodoptera frugiperda (500 g/ha), the “Kill in % after 6d” value is 0%.

For the compound `COC(=O)Nc1nc2ccccc2[nH]1` [carbendazim], the “Kill in % after 6d” value with Myzus persicae (500 g/ha) came to 20%.

Regarding `CO/N=C(/C1=NOCCO1)c1ccccc1Oc1ncnc(Oc2ccccc2Cl)c1F` [fluoxastrobin], the pest or weed control at 500 g/ha was 0% in the test with Tetranychus urticae (setting [1]) and 33% with Phaedon cochleariae (500 g/ha).

Take `Cc1cc(F)c(-n2nc(C(F)(F)F)nc2N)cc1[S+]([O-])CC(F)(F)F` (centres unmarked) [compound (I-4)]: the pest or weed control at 4 g/ha with Tetranychus urticae (Tetranychus urticae, foliar, 144 h, 4 g/ha, after 6 d, applied individually, read-out: Kill in % after 6d) was 70%. In addition, in the test on Tetranychus urticae (Tetranychus urticae, foliar, 144 h, 20 g/ha, after 6 d, applied individually, read-out: Kill in % after 6d), the pest or weed control at 20 g/ha was 80%. The “Kill in % after 1d” value with Myzus persicae (100 g/ha) amounted to 0%. Moreover, in the test with Phaedon cochleariae, the pest or weed control at 100 g/ha was 0%. Also, the “Kill in % after 6d” value with Spodoptera frugiperda (100 g/ha) turned out to be 0%.

`CC(C)(C)C(O)C(Oc1ccc(Cl)cc1)n1cncn1` (centres unmarked) [triadimenol]: in the test on Tetranychus urticae (setting [1]), the pest or weed control at 200 g/ha was 0%. For the same compound, the pest or weed control at 500 g/ha in the test on Phaedon cochleariae (500 g/ha) stood at 0%. Moreover, the “Kill in % after 6d” value in the test on Spodoptera frugiperda (500 g/ha) is given as 0%.

As to `O=C(Nc1ccccc1)N(Cc1ccc(Cl)cc1)C1CCCC1` [pencycuron], the pest or weed control at 500 g/ha with Phaedon cochleariae (500 g/ha) was 0%.

With `OC(Cc1ccccc1Cl)(Cn1ncnc1S)C1(Cl)CC1` (centres unmarked) [prothioconazole], the pest or weed control at 200 g/ha in the test on Tetranychus urticae (setting [1]) turned out to be 0%. Further, the pest or weed control at 500 g/ha in the test with Phaedon cochleariae (500 g/ha) is 0%. Further, the “Kill in % after 6d” value in the test with Spodoptera frugiperda (500 g/ha) was determined as 0%.

Consider `N#Cc1ccccc1NC(=O)c1snc(Cl)c1Cl` [isotianil], for which the pest or weed control at 500 g/ha in the test on Phaedon cochleariae (500 g/ha) came out at 0%.

For the compound `CCCN(CC)CC1COC2(CCC(C(C)(C)C)CC2)O1` (centres unmarked) [spiroxamine], in the test on Tetranychus urticae (setting [1]), the pest or weed control at 200 g/ha came out at 0%.

Turning to `O=c1c2cc(F)ccc2nc(-n2cncn2)n1-c1ccc(Cl)cc1Cl` [fluquincoazole, fluquinconazole], the figures for the pest or weed control at 500 g/ha in the test with Tetranychus urticae (setting [1]) and in the test on Phaedon cochleariae (500 g/ha) were 0% and 17%, respectively.

Regarding `CC(C)(C)C(O)C(Oc1ccc(-c2ccccc2)cc1)n1cncn1` (centres unmarked) [bitertanol], the pest or weed control at 500 g/ha in the test on Phaedon cochleariae (500 g/ha) was determined as 0%.

For the compound `Cn1cc(C(=O)Nc2ccc(F)cc2-c2ccc(Cl)c(Cl)c2)c(C(F)F)n1` [bixafen, N-(3′,4′-dichloro-5-fluoro[1,1′-biphenyl]-2-yl)-3-(difluoromethyl)-1-methyl-1H-pyrazole-4-carboxamide], the “Kill in % after 1d” value in the test on Tetranychus urticae (200 g/ha, applied individually) came out at 0%. The pest or weed control at 500 g/ha in the test with Phaedon cochleariae (500 g/ha) was found to be 0%.

`N#Cc1c[nH]cc1-c1cccc2c1OC(F)(F)O2` [fludioxonil]: the pest or weed control at 200 g/ha came out at 0% in the test with Tetranychus urticae (setting [1]) and 33% in the test on Phaedon cochleariae.

In the case of `CCCOC(=O)NCCCN(C)C` [propamocarb], the “Kill in % after 1d” value in the test on Tetranychus urticae (500 g/ha, applied individually) is given as 0%. In addition, the pest or weed control at 500 g/ha in the test on Tetranychus urticae (setting [2]) was 0%. Also, in the test on Phaedon cochleariae, the pest or weed control at 200 g/ha was 17%.

With `CO/N=C(/C(=O)OC)c1ccccc1CO/N=C(\C)c1cccc(C(F)(F)F)c1` [trifloxystrobin], the pest or weed control at 500 g/ha with Tetranychus urticae (setting [1]) and with Phaedon cochleariae (500 g/ha) was 0% in each case. Moreover, the “Kill in % after 1d” value in the test on Myzus persicae (500 g/ha) was determined as 70%. Further, the pest or weed control at 200 g/ha in the test on Phaedon cochleariae came to 17%.

For the compound `CC(C)C1CCC(Cc2ccc(Cl)cc2)C1(O)Cn1cncn1` (centres unmarked) [ipconazole], the pest or weed control at 500 g/ha with Phaedon cochleariae (500 g/ha) was 0%.

Consider `CNC(=O)/C(=N/OC)c1ccccc1Oc1ccccc1` [metominostrobin], for which the pest or weed control at 500 g/ha in the test with Tetranychus urticae (setting [1]) amounted to 0%.

As for `COCC(=O)N(c1c(C)cccc1C)C(C)C(=O)OC` (centres unmarked) [metalaxyl], the “Kill in % after 1d” value in the test with Tetranychus urticae (500 g/ha, applied individually) amounted to 0%. The pest or weed control at 500 g/ha in the test on Tetranychus urticae (setting [1]) was 0%.

In the case of `O=C(NCc1ncc(C(F)(F)F)cc1Cl)c1c(Cl)cccc1Cl` [fluopicolide, fluopicolid], the pest or weed control at 500 g/ha in the test with Tetranychus urticae (setting [2]) was found to be 0%. Besides, in the test with Phaedon cochleariae (500 g/ha), the “Kill in % after 6d” value was 0% and the pest or weed control at 500 g/ha turned out to be 0%.

In the case of `CC(C)(C)C(O)(CCc1ccc(Cl)cc1)Cn1cncn1` (centres unmarked) [tebuconazole], the pest or weed control at 200 g/ha with Tetranychus urticae (setting [1]) turned out to be 0%. Moreover, in the test on Phaedon cochleariae (500 g/ha), the pest or weed control at 500 g/ha came to 0%. The “Kill in % after 6d” value in the test with Spodoptera frugiperda (500 g/ha) is reported as 0%.

Turning to `CCC1(C(=O)NC(C)c2ccc(Cl)cc2)C(C)C1(Cl)Cl` (centres unmarked) [carpropamid], the pest or weed control at 500 g/ha with Phaedon cochleariae (500 g/ha) came out at 0%. For the same compound, in the test on Spodoptera frugiperda (500 g/ha), the “Kill in % after 6d” value is given as 0%.

Take `Cc1cc(C)c([S+]([O-])CC(F)(F)F)cc1-n1cnc(C(F)(F)F)n1` (centres unmarked) [(I-1)]: the “Kill in % after 1d” value in the test with Tetranychus urticae (0.16 g/ha, applied individually) is on record as 0%. Further, in the test with Tetranychus urticae (Tetranychus urticae, foliar, 144 h, 0.16 g/ha, after 6 d, applied individually, read-out: Kill in % after 6d), the pest or weed control at 0.16 g/ha stood at 0%. For the same compound, the pest or weed control at 0.8 g/ha in the test on Tetranychus urticae (Tetranychus urticae, foliar, 144 h, 0.8 g/ha, after 6 d, applied individually, read-out: Kill in % after 6d) was found to be 60%. For the same compound, the “Kill in % after 6d” value in the test with Myzus persicae (20 g/ha) worked out at 0%. In addition, in the test on Phaedon cochleariae, the pest or weed control at 100 g/ha amounted to 0%.

Regarding `CO/C=C(/C(=O)OC)c1ccccc1Oc1cc(Oc2ccccc2C#N)ncn1` [azoxystrobin], the pest or weed control at 500 g/ha in the test on Phaedon cochleariae (500 g/ha) turned out to be 17%.
